pIC50: −log10 of the molar value.
Target: full-length human PIKFYVE (Homo sapiens (Human), UniProt Q9Y2I7, L932S/Q1183K/Q995L/S1033A/S696N/T998S)
Experiment: PIKfyve biochemical assay (ADP-Glo Kinase assay, Carna Biosciences)
Excerpt: PIKfyve Biochemical Assay. The biochemical […] inhibition assays were run by Carna Biosciences according to proprietary methodology based on the Promega […] Kinase assay. […] NP_055855.2] was expressed as N-terminal GST-fusion protein (265 kDa) using baculovirus expression system. GST-PIKFYVE was purified by using glutathione sepharose chromatography and used in an ADP-GloTM Kinase assay (Promega). Reactions were set up by adding the test compound solution, substrate solution, ATP solution and kinase solution, each at 4× final concentrations. Reactions were prepared with assay buffer (50 mM MOPS, 1 mM DTT, pH7.2), mixed, and incubated in black 384 well polystyrene plates for 1 hour at room temperature. ADP-Glo^TM reagent was then added for 40 minutes, followed by kinase detection reagent for an additional 40 minutes. The kinase activity was evaluated by detecting relative light units on a luminescence plate reader. […] IC50 values were calculated from concentration vs % inhibition curves by fitting to a four-parameter logistic curve. […] The biochemical […] inhibition assays were run by Carna Biosciences according to proprietary methodology based on the Promega ADP-GloTM Kinase assay. […] GST-PIKFYVE was purified by using glutathione sepharose chromatography and used in an ADP-GIoTM Kinase assay (Promega). Reactions were set up by adding the test compound solution, substrate solution, ATP solution and kinase solution, each at 4× final concentrations. Reactions were prepared with assay buffer (50 mM MOPS, 1 mM DTT, pH7.2), mixed, and incubated in black 384 well polystyrene plates for 1 hour at room temperature. ADP-GIoTM reagent was then added for 40 minutes, followed by kinase detection reagent for an additional 40 minutes. The kinase activity was evaluated by detecting relative light units on a luminescence plate reader. […] IC50 values were calculated from concentration vs % inhibition curves by fitting to a four-parameter logistic curve. […] The same compounds were also tested in both FAB1 and PIKFYVE TDP-43 yeast models.

Sequence of full-length human PIKFYVE (Q9Y2I7 whole entry S696N/L932S/Q995L/T998S/S1033A/Q1183K): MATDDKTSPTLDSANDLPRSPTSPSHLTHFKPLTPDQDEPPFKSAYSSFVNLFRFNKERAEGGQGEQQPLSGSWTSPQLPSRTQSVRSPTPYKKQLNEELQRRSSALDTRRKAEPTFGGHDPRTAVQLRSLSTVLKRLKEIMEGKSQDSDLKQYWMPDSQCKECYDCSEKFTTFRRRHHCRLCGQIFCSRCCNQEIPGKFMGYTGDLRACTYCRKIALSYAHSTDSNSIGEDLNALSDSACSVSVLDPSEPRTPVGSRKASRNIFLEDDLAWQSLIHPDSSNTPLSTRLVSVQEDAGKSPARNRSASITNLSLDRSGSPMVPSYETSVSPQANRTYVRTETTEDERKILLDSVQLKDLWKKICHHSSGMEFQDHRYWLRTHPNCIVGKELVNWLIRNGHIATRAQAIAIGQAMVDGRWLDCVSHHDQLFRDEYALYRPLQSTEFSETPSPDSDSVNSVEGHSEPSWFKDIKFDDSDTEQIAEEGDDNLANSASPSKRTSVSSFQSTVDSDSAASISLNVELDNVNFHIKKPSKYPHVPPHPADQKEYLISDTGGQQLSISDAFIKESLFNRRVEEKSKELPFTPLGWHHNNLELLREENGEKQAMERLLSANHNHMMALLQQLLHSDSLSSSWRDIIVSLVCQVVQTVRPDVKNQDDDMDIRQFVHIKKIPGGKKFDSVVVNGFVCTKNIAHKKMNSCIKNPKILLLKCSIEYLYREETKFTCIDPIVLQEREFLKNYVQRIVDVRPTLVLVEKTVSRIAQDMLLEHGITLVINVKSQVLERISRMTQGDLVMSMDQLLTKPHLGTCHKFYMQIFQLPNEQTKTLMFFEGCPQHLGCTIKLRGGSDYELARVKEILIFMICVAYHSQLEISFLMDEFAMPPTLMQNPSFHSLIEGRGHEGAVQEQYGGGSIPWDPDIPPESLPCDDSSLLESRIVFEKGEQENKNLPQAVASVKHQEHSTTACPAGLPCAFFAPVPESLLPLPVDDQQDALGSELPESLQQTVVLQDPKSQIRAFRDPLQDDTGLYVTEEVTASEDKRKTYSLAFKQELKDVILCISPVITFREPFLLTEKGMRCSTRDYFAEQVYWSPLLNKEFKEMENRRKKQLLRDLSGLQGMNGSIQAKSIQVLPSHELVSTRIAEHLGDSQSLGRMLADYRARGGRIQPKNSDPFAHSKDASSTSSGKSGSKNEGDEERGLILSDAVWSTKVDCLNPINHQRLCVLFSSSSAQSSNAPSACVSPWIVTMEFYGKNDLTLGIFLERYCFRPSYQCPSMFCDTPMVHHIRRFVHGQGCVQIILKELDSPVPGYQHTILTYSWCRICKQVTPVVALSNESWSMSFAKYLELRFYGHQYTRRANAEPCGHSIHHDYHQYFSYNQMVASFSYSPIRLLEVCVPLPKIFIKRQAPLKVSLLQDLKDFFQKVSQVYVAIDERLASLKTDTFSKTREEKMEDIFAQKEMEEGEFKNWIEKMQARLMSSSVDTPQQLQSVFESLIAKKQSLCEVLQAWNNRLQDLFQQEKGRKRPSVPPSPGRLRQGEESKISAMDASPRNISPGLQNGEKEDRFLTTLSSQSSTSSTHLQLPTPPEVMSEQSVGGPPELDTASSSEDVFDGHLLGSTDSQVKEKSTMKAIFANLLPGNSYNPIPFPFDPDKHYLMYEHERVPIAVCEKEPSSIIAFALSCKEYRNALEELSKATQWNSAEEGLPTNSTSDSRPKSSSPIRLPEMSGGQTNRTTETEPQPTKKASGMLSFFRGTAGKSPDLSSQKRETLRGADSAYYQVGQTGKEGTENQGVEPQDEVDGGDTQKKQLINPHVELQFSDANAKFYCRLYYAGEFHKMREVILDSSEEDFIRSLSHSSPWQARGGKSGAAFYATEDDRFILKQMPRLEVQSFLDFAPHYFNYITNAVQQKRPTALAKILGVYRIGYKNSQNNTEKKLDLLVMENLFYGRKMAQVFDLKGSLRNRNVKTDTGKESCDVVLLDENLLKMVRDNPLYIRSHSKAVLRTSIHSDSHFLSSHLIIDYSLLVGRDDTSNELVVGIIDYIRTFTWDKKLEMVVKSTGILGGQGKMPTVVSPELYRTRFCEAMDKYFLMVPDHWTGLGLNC

Structure (SMILES) | pIC50 (class symbols) | pIC50 (numeric values)
COCCc1ccn(-c2cc(N3CCOCC3)n3nc(-c4ccncc4)cc3n2)n1 [Compound 81, 4-(5-(3-(2-methoxyethyl)-1H-pyrazol-1-yl)-2-(pyridin-4-yl)pyrazolo[1,5-a]pyrimidin-7-yl)morpholine] | 6.00 to 7.00 | 
c1ccc(C2CN(c3cc(N4CCOCC4)n4nc(-c5ccncc5)cc4n3)C2)cc1 [Compound 32, 4-(5-(3-phenylazetidin-1-yl)-2-(pyridin-4-yl)pyrazolo[1,5-a]pyrimidin-7-yl)morpholine] | 5.00 to 6.00 | 
C1=C(c2cn(-c3cc(N4CCOCC4)n4nc(-c5ccncc5)cc4n3)cn2)CNCC1 [Compound 17, 4-(2-(pyridin-4-yl)-5-(4-(1,2,5,6-tetrahydropyridin-3-yl)-1H-imidazol-1-yl)pyrazolo[1,5-a]pyrimidin-7-yl)morpholine] | 5.00 to 6.00 | 
c1ccc(-n2ccc(-c3cc(N4CCOCC4)n4nc(-c5ccncc5)cc4n3)n2)cc1 [Compound 14, 4-(5-(1-phenyl-1H-pyrazol-3-yl)-2-(pyridin-4-yl)pyrazolo[1,5-a]pyrimidin-7-yl)morpholine] | 7.00 to 8.00 | 
c1ccc(CC2CNCCN2c2cc(N3CCOCC3)n3nc(-c4ccncc4)cc3n2)cc1 (centres unmarked) [Compound 117, 4-(5-(2-benzylpiperazin-1-yl)-2-(pyridin-4-yl)pyrazolo[1,5-a]pyrimidin-7-yl)morpholine] | 5.00 to 6.00 | 
c1ccc(CN2CCCC2c2cc(N3CCOCC3)n3nc(-c4ccncc4)cc3n2)cc1 (centres unmarked) [Compound 124, 4-(5-(1-benzylpyrrolidin-2-yl)-2-(pyridin-4-yl)pyrazolo[1,5-a]pyrimidin-7-yl)morpholine] | 5.00 to 6.00 | 
OCCc1ccn(-c2cc(N3CCOCC3)n3nc(-c4ccncc4)cc3n2)n1 [Compound 80, 2-(1-(7-morpholino-2-(pyridin-4-yl)pyrazolo[1,5-a]pyrimidin-5-yl)-1H-pyrazol-3-yl)ethan-1-ol] | 6.00 to 7.00 | 
O=C(/C=C/c1cc(N2CCOCC2)n2nc(-c3ccncc3)cc2n1)c1ccccc1 [Compound 109, (E)-3-(7-morpholino-2-(pyridin-4-yl)pyrazolo[1,5-a]pyrimidin-5-yl)-1-phenylprop-2-en-1-one] | 5.00 to 6.00 | 
CN1C(=O)CN(c2cc(N3CCOCC3)n3nc(-c4ccncc4)cc3n2)CC1c1ccccc1 (centres unmarked) [Compound 37, 1-methyl-4-(7-morpholino-2-(pyridin-4-yl)pyrazolo[1,5-a]pyrimidin-5-yl)-6-phenylpiperazin-2-one] | 5.00 to 6.00 | 
NC(=O)c1cc(N2CCOCC2)n2nc(-c3ccncc3)cc2n1 [Compound 102, 7-morpholino-2-(pyridin-4-yl)pyrazolo[1,5-a]pyrimidine-5-carboxamide] | 5.00 to 6.00 | 
O=c1c(-c2ccccc2)ccnn1-c1cc(N2CCOCC2)n2nc(-c3ccncc3)cc2n1 [Compound 5, 2-(7-morpholino-2-(pyridin-4-yl)pyrazolo[1,5-a]pyrimidin-5-yl)-4-phenylpyridazin-3(2H)-one] | 6.00 to 7.00 | 
Oc1cc(C2CCCCC2)nn1-c1cc(N2CCOCC2)n2nc(-c3ccncc3)cc2n1 [Compound 49, 3-cyclohexyl-1-(7-morpholino-2-(pyridin-4-yl)pyrazolo[1,5-a]pyrimidin-5-yl)-1H-pyrazol-5-ol] | 6.00 to 7.00 | 
CN1CC(c2cc(N3CCOCC3)n3nc(-c4ccncc4)cc3n2)CC1c1ccccc1 (centres unmarked) [Compound 19, 4-(5-(1-methyl-5-phenylpyrrolidin-3-yl)-2-(pyridin-4-yl)pyrazolo[1,5-a]pyrimidin-7-yl)morpholine] | 5.00 to 6.00 | 
c1cc(-c2cc3nc(-n4cc5c(n4)CCOC5)cc(N4CCOCC4)n3n2)ccn1 [Compound 89, 2-(7-morpholino-2-(pyridin-4-yl)pyrazolo[1,5-a]pyrimidin-5-yl)-2,4,6,7-tetrahydropyrano[4,3-c]pyrazole] | 6.00 to 7.00 | 
O=C1C(c2ccccc2)CCN1c1cc(N2CCOCC2)n2nc(-c3ccncc3)cc2n1 (centres unmarked) [Compound 23, 1-(7-morpholino-2-(pyridin-4-yl)pyrazolo[1,5-a]pyrimidin-5-yl)-3-phenylpyrrolidin-2-one] | 6.00 to 7.00 | 
O=c1c(-c2ccccc2)c(-c2ccccc2)cnn1-c1cc(N2CCOCC2)n2nc(-c3ccncc3)cc2n1 [Compound 6, 2-(7-morpholino-2-(pyridin-4-yl)pyrazolo[1,5-a]pyrimidin-5-yl)-4,5-diphenylpyridazin-3(2H)-one] | 5.00 to 6.00 | 

Structure (SMILES) | pIC50 (class symbols) | pIC50 (numeric values)
Oc1cc(-c2cc(N3CCOCC3)n3nc(-c4ccncc4)cc3n2)nn1-c1ccccc1 [Compound 57, 3-(7-morpholino-2-(pyridin-4-yl)pyrazolo[1,5-a]pyrimidin-5-yl)-1-phenyl-1H-pyrazol-5-ol] | 7.00 to 8.00 | 
c1cncc(-c2ccn(-c3cc(N4CCOCC4)n4nc(C5CCCO5)cc4n3)n2)c1 (centres unmarked) [Compound 92, 4-(5-(3-(pyridin-3-yl)-1H-pyrazol-1-yl)-2-(tetrahydrofuran-2-yl)pyrazolo[1,5-a]pyrimidin-7-yl)morpholine] | 5.00 to 6.00 | 
c1cc(-c2cc3nc(-n4ccc(C5CCCNC5)n4)cc(N4CCOCC4)n3n2)ccn1 (centres unmarked) [Compound 67, 4-(5-(3-(piperidin-3-yl)-1H-pyrazol-1-yl)-2-(pyridin-4-yl)pyrazolo[1,5-a]pyrimidin-7-yl)morpholine] | 6.00 to 7.00 | 
C=Cc1cc2nc(-n3ccc(-c4ccccc4)n3)cc(N3CCOCC3)n2n1 [Compound 143, 4-(5-(3-phenyl-1H-pyrazol-1-yl)-2-vinylpyrazolo[1,5-a]pyrimidin-7-yl)morpholine] | 6.00 to 7.00 | 
c1ccc(-c2ccn(-c3cc(N4CCOCC4)n4nc(C5CCOCC5)cc4n3)n2)cc1 [Compound 98, 4-(5-(3-phenyl-1H-pyrazol-1-yl)-2-(tetrahydro-2H-pyran-4-yl)pyrazolo[1,5-a]pyrimidin-7-yl)morpholine] | 6.00 to 7.00 | 
c1cc(-c2cc3nc(-n4ccc(C5CCCNC5)n4)cc(N4CCOCC4)n3n2)ccn1 (single isomer, unassigned) [Compound 75, 4-(5-(3-(piperidin-3-yl)-1H-pyrazol-1-yl)-2-(pyridin-4-yl)pyrazolo[1,5-a]pyrimidin-7-yl)morpholine] | 6.00 to 7.00 | 
Fc1cccc(Oc2ncccc2-c2cc(N3CCOCC3)n3nc(-c4ccncc4)cc3n2)c1 [Compound 137, 4-(5-(2-(3-fluorophenoxy)pyridin-3-yl)-2-(pyridin-4-yl)pyrazolo[1,5-a]pyrimidin-7-yl)morpholine] | 6.00 to 7.00 | 
CN1CCN(c2cc(N3CCOCC3)n3nc(-c4ccncc4)cc3n2)C(Cc2ccccc2)C1=O (centres unmarked) [Compound 28, 3-benzyl-1-methyl-4-(7-morpholino-2-(pyridin-4-yl)pyrazolo[1,5-a]pyrimidin-5-yl)piperazin-2-one] | 5.00 to 6.00 | 
c1cn(-c2cc(N3CCOCC3)n3nc(C4CCCO4)cc3n2)nc1C1CCOCC1 (centres unmarked) [Compound 95, 4-(5-(3-(tetrahydro-2H-pyran-4-yl)-1H-pyrazol-1-yl)-2-(tetrahydrofuran-2-yl)pyrazolo[1,5-a]pyrimidin-7-yl)morpholine] | < 5.00 | 
c1ccc(-c2ccn(-c3cc(N4CCOCC4)n4nc(C5CCCO5)cc4n3)n2)cc1 (centres unmarked) [Compound 90, 4-(5-(3-phenyl-1H-pyrazol-1-yl)-2-(tetrahydrofuran-2-yl)pyrazolo[1,5-a]pyrimidin-7-yl)morpholine] | 7.00 to 8.00 | 
c1ccc(C2CC(c3cc(N4CCOCC4)n4nc(-c5ccncc5)cc4n3)CN2)cc1 (centres unmarked) [Compound 112, 4-(5-(5-phenylpyrrolidin-3-yl)-2-(pyridin-4-yl)pyrazolo[1,5-a]pyrimidin-7-yl)morpholine] | 5.00 to 6.00 | 
c1ccc(-n2ccc(-c3cc(N4CCOCC4)n4nc(C5CCCO5)cc4n3)n2)cc1 (centres unmarked) [Compound 96, 4-(5-(1-phenyl-1H-pyrazol-3-yl)-2-(tetrahydrofuran-2-yl)pyrazolo[1,5-a]pyrimidin-7-yl)morpholine] | 6.00 to 7.00 | 
c1ccc(Oc2nccc(-c3cc(N4CCOCC4)n4nc(-c5ccncc5)cc4n3)n2)cc1 [Compound 141, 4-(5-(2-phenoxypyrimidin-4-yl)-2-(pyridin-4-yl)pyrazolo[1,5-a]pyrimidin-7-yl)morpholine] |  | 6.00
COc1cccc(-c2ccn(-c3cc(N4CCOCC4)n4nc(C5CCCO5)cc4n3)n2)c1 (centres unmarked) [Compound 93, 4-(5-(3-(3-methoxyphenyl)-1H-pyrazol-1-yl)-2-(tetrahydrofuran-2-yl)pyrazolo[1,5-a]pyrimidin-7-yl)morpholine] | 7.00 to 8.00 | 
Cc1ccccc1-c1cc(O)n(-c2cc(N3CCOCC3)n3nc(-c4ccncc4)cc3n2)n1 [Compound 46, 1-(7-morpholino-2-(pyridin-4-yl)pyrazolo[1,5-a]pyrimidin-5-yl)-3-(o-tolyl)-1H-pyrazol-5-ol] | 7.00 to 8.00 | 
O=c1c(Br)c(Br)cnn1-c1cc(N2CCOCC2)n2nc(-c3ccncc3)cc2n1 [Compound 4, 4,5-dibromo-2-(7-morpholino-2-(pyridin-4-yl)pyrazolo[1,5-a]pyrimidin-5-yl)pyridazin-3(2H)-one] | 5.00 to 6.00 | 

— patent US20250353852A1, “COMPOUNDS AND COMPOSITIONS THAT INHIBIT PIKFYVE” (Kineta, Inc., priority 2021, published 2025)
